PubChem BioAssay (NCI)
Where “and” joins values, the source holds several entries; their conditions need not be identical. Equal entries are not always repeated.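 Results reflect a 48-hour exposure of cells in 96-well plates to compound at five concentrations. At the GI50, growth is halved. TGI: total growth inhibition.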

Assays:
Assay in all cases: NCI-60 cell line screen, 48 h
HCT-15 colon = tested on: HCT-15 colon
HOP-62 NSCLC = tested on: HOP-62 NSCLC
IGROV1 ovarian = tested on: IGROV1 ovarian
NCI-H226 lung = tested on: NCI-H226 lung
NCI-H23 lung = tested on: NCI-H23 lung
OVCAR-4 ovarian = tested on: OVCAR-4 ovarian
SNB-75 CNS = tested on: SNB-75 CNS
SR leukemia = tested on: SR leukemia
SW-620 colon = tested on: SW-620 colon
U251 CNS = tested on: U251 CNS

Row | SMILES | GI50 (HCT-15 colon) | TGI (HCT-15 colon) | GI50 (HOP-62 NSCLC) | TGI (HOP-62 NSCLC) | GI50 (IGROV1 ovarian) | TGI (IGROV1 ovarian) | GI50 (NCI-H226 lung) | TGI (NCI-H226 lung) | GI50 (NCI-H23 lung) | TGI (NCI-H23 lung) | GI50 (OVCAR-4 ovarian) | TGI (OVCAR-4 ovarian) | GI50 (SNB-75 CNS) | TGI (SNB-75 CNS) | GI50 (SR leukemia) | TGI (SR leukemia) | GI50 (SW-620 colon) | TGI (SW-620 colon) | GI50 (U251 CNS) | TGI (U251 CNS)
1 | C[C@@]12CCC[C@@](C)(C(=O)O)C1CC[C@@]13CC(=O)[C@@](CO)(CCC12)C3 (some centres undefined) | > 100 µM | > 100 µM | > 100 µM | > 100 µM | > 100 µM | > 100 µM | > 100 µM | > 100 µM | > 100 µM | > 100 µM | > 100 µM | > 100 µM | > 100 µM | > 100 µM | > 100 µM | > 100 µM | > 100 µM | > 100 µM | > 100 µM | > 100 µM
2 | C=C1C(=O)O[C@H]2[C@H]1CC(=O)/C(C)=C\CC[C@@]1(C)O[C@@H]21 | 0.83 µg/mL | 3.68 µg/mL | 4.31 µg/mL | 8.45 µg/mL | 2.17 µg/mL | 5.8 µg/mL | 4.71 µg/mL | 9.45 µg/mL | 3.94 µg/mL | 8.18 µg/mL | 3.75 µg/mL | 8.12 µg/mL | 4.93 µg/mL | 9.57 µg/mL | 0.759 µg/mL | 9.5 µg/mL | 1.06 µg/mL | 6.15 µg/mL | 5.32 µg/mL | 10.9 µg/mL
3 | CCN1CCCCC(=N\O)/C(=N/O)CCCC1 | – | > 100 µM | – | > 100 µM | – | > 100 µM | – | > 100 µM | – | > 100 µM | – | > 100 µM | – | > 100 µM | – | > 100 µM | – | > 100 µM | – | > 100 µM
4 | COc1cccc(C2C(C#N)=C(N)Oc3cc(OC)ccc32)c1 (centres undefined) | 0.0366 µM | > 100 µM | 0.0418 µM | > 76.6 µM | 0.0622 µM | > 50.9 µM | 0.896 µM | > 100 µM | 0.0415 µM | > 33 µM | 1.96 µM | > 96.8 µM | 0.0263 µM | > 49.6 µM | 0.0256 µM | > 33.8 µM | 0.035 µM | > 100 µM | 0.0419 µM | > 100 µM
5 | Oc1ccc(-c2nc3ccc4[nH]ncc4c3c3c2CCCC3)c2cccnc12 | 0.153 µM | 7.3 µM | 0.16 µM | 1.71 µM | 0.196 µM | 4.06 µM | 1.22 µM | 5.79 µM | 0.158 µM | 1.66 µM | 0.781 µM | 6.06 µM | 0.132 µM | 1.06 µM | 0.12 µM | 7.79 µM | 0.123 µM | 11.1 µM | 0.143 µM | 5.97 µM
6 | COc1ccc(S(=O)(=O)N/N=C(\C)CN2C(=O)c3ccccc3C2=O)cc1 | – | > 100 µM | – | > 100 µM | – | > 100 µM | – | > 100 µM | – | > 100 µM | – | > 100 µM | – | > 100 µM | – | > 100 µM | – | > 100 µM | – | > 100 µM
7 | C=CCNc1cccc2c1C(=O)c1ccccc1C2(O)CC=C (centres undefined) | 15.5 µM | 57 µM | 24.2 µM | 61.2 µM | 33.3 µM | > 100 µM | 20.2 µM | 49.2 µM | 18.2 µM | 45.7 µM | 26.2 µM | > 100 µM | 17 µM | 45.7 µM | 36.8 µM | > 100 µM | 22.2 µM | 55.1 µM | 17.4 µM | 39.2 µM
8 | C=C1C(=O)O[C@H]2[C@H]1CC/C(COC(=O)C(=O)c1cn(C)c3ccc(OC)cc13)=C\CC[C@@]1(C)O[C@@H]21 | 1.75 µM | 3.23 µM | 6.46 µM | 11.9 µM | 2.27 µM | 6.01 µM | 5.45 µM | 10.1 µM | 6.44 µM | 12.4 µM | 5.2 µM | 25.5 µM | 6.69 µM | 11.8 µM | 2.34 µM | 42.5 µM | 3.53 µM | 14.5 µM | 6.58 µM | 10.1 µM
9 | COC(=O)c1cc2c(cc1Cl)SC(N(N(C)C)S(=O)(=O)c1ccc(Cl)cc1)=NS2(=O)=O | 14.1 µM | 27.1 µM | 19.6 µM | 48.7 µM | 22.5 µM | 73.6 µM | 19.8 µM | 62 µM | 19.7 µM | 43.5 µM | 18.1 µM | 54.8 µM | 23.7 µM | 69.9 µM | 19.8 µM | 40.9 µM | 14.3 µM | 27.4 µM | 17 µM | 44.8 µM
10 | Cc1nc2ccc(NCCN(C)C)c3c(=O)c4cc(O)ccc4n1c23 | – | 2.8 µM | – | 11.1 µM | – | 9.46 µM | – | 1.7 µM | – | 2.05 µM | – | 3.38 µM | – | 5.63 µM | – | 0.248 µM | – | 4.53 µM | – | 11.7 µM
11 | O=C1C(=O)c2c(nc3ncccn23)-c2ccccc21 | 0.166 µM | 0.358 µM | 0.296 µM | 1.05 µM | 0.245 µM | 0.566 µM | 0.493 µM | 1.25 µM | 0.193 µM | 0.432 µM | 0.161 µM | 0.297 µM | 0.378 µM | 0.793 µM | 0.315 µM | – | 0.214 µM | 0.461 µM | 0.316 µM | 1.16 µM
12 | COc1ccc(Cn2cc(Cn3c(=O)c(-c4nc5ccccc5[nH]4)cc4ccccc43)nn2)c(OC)c1OC | 0.378 µM | > 100 µM | 0.179 µM and 0.525 µM | 0.938 µM and 3.87 µM | 0.186 µM and 0.445 µM | 1.84 µM and 3.66 µM | 0.338 µM | > 100 µM | 0.329 µM and 0.581 µM | 50 µM and > 100 µM | 1.31 µM | > 100 µM | 0.0354 µM | 0.432 µM | 0.291 µM | > 100 µM | 0.223 µM and 0.293 µM | 50 µM and > 100 µM | 0.308 µM and 0.183 µM | 8.29 µM and 17.6 µM
